Test results: patent US9949960B2, “Pharmaceutical composition for preventing or treating muscle weakness-related diseases, containing butylpyridinium or derivative thereof” (KOREA RESEARCH INSTITUTE OF BIOSCIENCE AND BIOTECHNOLOGY, priority 2014, dated 2018)

Tests used:
[1] = system: C2C12 myoblast cell line; assay: Immunocytochemistry of MYH3 expression in differentiating C2C12 cells; format: cell-based, mouse; details: 0.2 μM, third day of differentiation; FIG. 2
Description: (§1) The DMSO, cetylpyridinium chloride, butylpyridinium chloride, and dodecylpyridinium chloride used in the experiment were all purchased from Sigma-Aldrich.
C2C12 cells on a cover glass coated with 0.1% gelatin were differentiated for 3 days. After washing the cells with 1×PBS, fixing with 3.7% paraformaldehyde at room temperature for 15 minutes, and washing 3 times with 1×PBS, a permeabilization buffer was added, and the cells were reacted at room temperature for 15 minutes. After washing the cells three times with 1×PBS again, the cells were reacted for 30 minutes with PBST (blocking buffer, PBS containing 0.5% Tween 20) containing 1% BSA to deter any unspecific binding of antibodies. The primary antibody against MYH3 (SC-20641, Santa Cruz Biotechnology) was added to the blocking buffer by diluting at a ratio of 1:500 and was reacted at room temperature for 1 hour. After washing the cells three times with 1×PBS, the secondary antibody (Goat anti-Rabbit IgG-HRP), which was diluted in the blocking buffer at a ratio of 1:5000, was added and reacted at room temperature for 1 hour, and the cells were washed three times with 1×PBS. The cover glass was placed on a slide glass, photographs were taken with a fluorescence microscope, and the results were analyzed.

[2] = system: C57BL/6 male mice, muscle immobilization model; assay: Treadmill test after tibialis anterior muscle immobilization; format: in vivo, mouse; details: compared to control group
Description: (§2) As experimental animals, 20 of C57BL/6 male mice aged 6 weeks were used. The experimental animals were assigned to two groups: a control group, to which 10 mice having similar weights were assigned without administration, and an experimental group, to which 10 mice having similar weights were assigned with butylpyridinium chloride administration.
(§3) It was also administered continuously during the muscle immobilization periods described below.
(§4) In this experiment, as a method for inducing muscle regeneration in mice, the tibialis anterior muscle immobilization protocol was used. In this method, the thighs and shins of one leg of a mouse were fixed using a medical staple so that legs were immobilized, and after leaving the immobilized mouse alone for 3 days, the fixed leg was released. The principle used in this method is that when a leg is placed in a cast and the muscle of the leg is immobilized (i.e., not frequently used), the muscle is lost. It is a method for inducing muscle regeneration, in which, after the muscle loss due to immobilizing the shin muscle, the muscle is regenerated by releasing the immobilized muscle so that the muscle may move again. […]

[3] = system: C57BL/6 male mice, muscle immobilization model; assay: Rota-rod test after tibialis anterior muscle immobilization; format: in vivo, mouse; details: compared to control group
Description: as §2, §3, §4

[4] = system: C2C12 myoblast cell line; assay: Myotube formation of C2C12 cells observed under phase contrast microscopy; format: cell-based, mouse; details: 0.2 μM, 3 days differentiation, compared to DMSO control; FIG. 1
Description: C2C12 is a cell line of myoblasts obtained from a C3H strain live mouse, and it is widely used in the differentiation studies of myoblasts.
The above-described C2C12 cells were cultured in each of general media for cell growth and media for differentiation. In the normal cell growth media (GM), DMEM supplemented with 10% fetal bovine serum was used, and in the differentiation media (DM), DMEM containing 2% horse blood serum was used.
as §1

[5] = system: C2C12 myoblast cell line; assay: Western blot of MYH3 protein in differentiating C2C12 cells; format: cell-based, mouse; details: 0.2 μM every day, third day of differentiation, vs DMSO control; FIG. 3
Description: The cells were harvested on the third day of differentiation and centrifuged at 1200 rpm for 3 minutes. After adding 100 μL of a lysis buffer to the cells, the cells were sonicated and centrifuged at 3000 rpm for 10 minutes to obtain a water-soluble protein, and after adding a 4× sample buffer, the cells were reacted in boiling water for 5 minutes.
10 μg of the protein was loaded on a 12% SDS-PAGE gel and developed, and then was transferred onto a nitrocellulose membrane. The nitrocellulose membrane was blocked in 5% skim milk for 1 hour at room temperature and washed 5 times with TTBS (0.03% Tween 20, Tris 2.42 g, NaCl 9 g, pH 7.4, and 1 L) for 5 minutes each. The primary antibody was diluted in TTBS containing 5% skim milk at a ratio of 1:500 and was added to the nitrocellulose membrane, and after reacting at room temperature for 2 hours, the nitrocellulose membrane was again washed 5 times with TTBS for 5 minutes each. The secondary antibody was diluted at a ratio of 1:5000 again in TTBS containing 5% skim milk and added, was reacted at room temperature for 2 hours, was washed with TTBS 5 times for 5 minutes each, and ECL (Enhanced Chemiluminescent solution, Pierce) was added. Thereafter, the membrane was exposed to X-ray film, and the amount of the protein was measured.

[6] = system: C57BL/6 male mice, muscle immobilization model; assay: Grip strength test after tibialis anterior muscle immobilization; format: in vivo, mouse; details: compared to control group
Description: as §2, §3
as §4, with “lost.” for “lost. It is a method for inducing muscle regeneration, in which, after the muscle loss due to immobilizing the shin muscle, the muscle is regenerated by releasing the immobilized muscle so that the muscle may move again.”
Grip strength was measured using a grip strength measuring instrument made by the company BIOSEB. The mouse was placed on a wire mesh attached to the instrument panel that can monitor the strength of a force, and the force of holding the wire mesh by the mouse while the tail was gripped downward was measured. […]

[7] = system: mouse immobilization model; assay: Muscle fiber cross-sectional area (Laminin staining of TA muscle) in mouse immobilization model; details: 1.7 mg/kg (mouse) oral, compared to control group; FIG. 12
Description: The separated muscle was cut to a thickness of 5 μM and stained by immunofluorescence using a Laminin antibody. […] By using the Laminin antibody, sections of the skeletal muscle fibers formed in the basement membrane were stained, and the cross-sectional area of the muscle fibers was measured (FIG. 12).

[8] = system: mouse immobilization model; assay: Skeletal muscle mass (muscle weight divided by body weight) in mouse immobilization model; format: in vivo; details: oral, concentration-dependent, 7 days after inducing regeneration; FIG. 11
From the text: Afterwards, an increase in the skeletal muscle mass due to the drug was confirmed by dividing the weight of the separated muscle by the body weight of the mouse (FIG. 11).

[9] = system: mouse immobilization model; assay: Motor ability by rota-rod and treadmill tests after concentration-dependent oral administration; details: FIG. 10
Description: The exercise was applied using a rota-rod device consisting of 6 partitions (with a diameter of 7 cm, at an interval of 15 cm) and a rotatable cylindrical bar (with a height of 60 cm).
For the treadmill used in this test, a self-manufactured device was used. After each mouse was placed in an isolated lane and made to run, the time from the starting point to a point when the mouse was exhausted (i.e., judged to have no will to run) was recorded. […] In this experiment, repeated experiments on the same mouse could not be performed. The mouse was placed on the device and was made to run at a speed of 8 rpm, the speed was accelerated by 2 rpm every 10 minutes up to a speed of 18 rpm, and starting with no inclination, the inclination was increased by 5 degrees every 30 minutes.

Row | SMILES | expression of MYH3 (immunocytochemistry) [1] | formation of myotubes (differentiation promoting effect) [4] | amount of MYH3 protein (Western blot) [5] | also measured
1 | CCCC[n+]1ccccc1 [butylpyridinium chloride] | very high | more myotubes were formed | significantly increased | endurance (treadmill) ([2]; 15 mg/kg oral, after muscle immobilization, FIG. 6): improved; motor ability to maintain the sense of balance (rota-rod) ([3]; 15 mg/kg oral, after muscle immobilization, FIG. 5): improved; range of decrease in grip strength after muscle immobilization ([6]; 15 mg/kg oral, 3 days immobilization, tested 7 days after release, FIG. 4): reduced
2 | CCCCCCCCCCCCCCCC[n+]1ccccc1 [cetylpyridinium bromide] | – | – | increased | –
3 | CCCCCCCCCCCCCCCC[n+]1ccccc1 [cetylpyridinium chloride] | very high | more myotubes were formed | significantly increased | cross-sectional area of the muscle (TA) [7]: increased; skeletal muscle mass of the EDL muscle [8]: increased; skeletal muscle mass of the gastrocnemius muscle [8]: increased; endurance (treadmill) ([2]; 50 mg/kg oral for 2 weeks, FIG. 9): improved; motor ability (rota-rod and treadmill tests) [9]: improved; motor ability to maintain the sense of balance (rota-rod) ([3]; 50 mg/kg oral for 2 weeks, FIG. 8): improved; range of decrease in grip strength after muscle immobilization ([6]; 50 mg/kg oral for 2 weeks, FIG. 7): reduced
4 | CCCCCCCCCCCC[n+]1ccccc1 [dodecylpyridinium chloride] | very high | more myotubes were formed | significantly increased | –
5 | CC[n+]1ccccc1.[Cl-] [ethylpyridinium chloride] | – | – | did not increase | –
